Test results: patent publication US12297197B2, “Pyrazolopyridine compound as RET inhibitor and application thereof” (GUANGZHOU BAIYUNSHAN PHARMACEUTICAL HOLDINGS CO., LTD. …, priority 2019, dated 2025)
Counter-ions that a name gives are not always drawn.

Key:
[1] = molecular target: RET kinase (Homo sapiens, UniProt P07949); test: In-vitro enzyme activity test, RET kinase; assay type: biochemical; details: ATP 20 μM; 10 concentrations 3 μM to 0.152 nM
Protocol: (§1) The enzyme activity was detected by a Z′-LYTE™ kinase test, and inhibitory effects of the compounds onRET and RET (V804M) kinases were evaluated with an ICs value of each compound as an index.
(§2) The compounds used for RET and RET (V804M) kinase tests were diluted 3-fold, in 10 concentration gradients ranging from 3 μM to 0.152 nM; and the content of DMSO in detection reaction was 1%.
(§3) Basic reaction buffer, 20 mM 4-(2-hydroxyethyl)piperazine-1-ethanesulfonic acid (Hepes) buffer (pH 7.5), 10 mM MgCl2. 1 mM 1,2-bis[2-[bis(carboxymethyl)amino]ethoxy]ethane (EGTA), 0.02% polyoxyethylene lauryl ether (Brij35), 0.02 mg/mL bovine serum albumin, 0.1 mM of Na3VO4, 2 mM dithiothreitol (DTT) and 1% DMSO.
(§4) The compounds to be tested were dissolved in a 100% DMSO system to be diluted to 10 mM for further use. The solution was diluted by using Integra Viaflo Assist.
(§5) Test conditions: concentrations of RET kinase, peptide substrate CHKtide and adenosine triphosphate (ATP) were […], 1000 μM and 20 μM, respectively, and concentrations of RET (V804M) kinase, substrate peptide and ATP were […], 1000 μM and 30 μM, respectively.
(§6) Reaction process: compound solutions of different concentrations were added to a kinase/peptide solution prepared according to the test conditions, the obtained solution was incubated at room temperature for 20 minutes, and then 33P-ATP of corresponding concentrations were added, and the obtained solution was incubated at room temperature for 120 minutes. The radioactivity was detected by a filter-binding method.
(§7) The reaction was terminated by adding phosphoric acid (concentration, 0.5%) into a kinase reaction solution, and plate reading was carried out with an Envision instrument.
(§8) Data were converted into phosphorylation rate and inhibition rate, and the parametric curve was fitted by using GraphPad Software to obtain IC50 data of the compounds.

[2] = molecular target: RET (V804M) kinase (Homo sapiens, UniProt P07949, V804M); test: In-vitro enzyme activity test, RET (V804M) kinase; assay type: biochemical; details: ATP 30 μM; 10 concentrations 3 μM to 0.152 nM
Chain of RET (V804M) kinase (P07949 29-1114 V804M): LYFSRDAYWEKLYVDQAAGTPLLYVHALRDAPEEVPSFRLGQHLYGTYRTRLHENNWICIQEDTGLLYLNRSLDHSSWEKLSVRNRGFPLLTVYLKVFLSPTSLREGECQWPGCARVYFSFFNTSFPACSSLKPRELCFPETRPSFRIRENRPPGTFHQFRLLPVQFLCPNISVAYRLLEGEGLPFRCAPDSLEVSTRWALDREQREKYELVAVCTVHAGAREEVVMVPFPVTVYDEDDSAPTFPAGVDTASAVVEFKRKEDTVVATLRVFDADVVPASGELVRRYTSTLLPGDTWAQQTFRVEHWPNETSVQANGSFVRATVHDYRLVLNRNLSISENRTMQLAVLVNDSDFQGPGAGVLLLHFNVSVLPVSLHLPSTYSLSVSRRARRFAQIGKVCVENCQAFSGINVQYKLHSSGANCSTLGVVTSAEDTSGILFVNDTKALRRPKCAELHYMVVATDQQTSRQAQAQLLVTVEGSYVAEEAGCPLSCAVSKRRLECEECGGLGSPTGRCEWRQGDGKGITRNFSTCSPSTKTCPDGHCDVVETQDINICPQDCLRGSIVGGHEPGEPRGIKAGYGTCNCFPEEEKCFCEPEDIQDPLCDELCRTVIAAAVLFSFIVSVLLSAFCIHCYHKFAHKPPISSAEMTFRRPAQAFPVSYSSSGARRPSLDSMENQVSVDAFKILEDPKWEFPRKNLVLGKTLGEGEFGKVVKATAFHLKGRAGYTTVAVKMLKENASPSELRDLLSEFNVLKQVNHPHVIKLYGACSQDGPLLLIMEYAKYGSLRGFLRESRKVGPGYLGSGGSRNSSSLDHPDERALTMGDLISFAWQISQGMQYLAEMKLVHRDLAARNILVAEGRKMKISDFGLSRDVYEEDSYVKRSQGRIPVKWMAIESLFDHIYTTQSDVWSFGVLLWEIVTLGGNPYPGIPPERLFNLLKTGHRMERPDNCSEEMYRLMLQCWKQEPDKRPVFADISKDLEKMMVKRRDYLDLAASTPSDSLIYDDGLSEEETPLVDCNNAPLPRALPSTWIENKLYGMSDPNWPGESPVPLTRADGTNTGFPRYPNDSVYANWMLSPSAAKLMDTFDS
Protocol: as §1, §2, §3, §4, §5, §6, §7, §8

Chain of RET kinase (P07949 29-1114): as the sequence (P07949 29-1114 V804M) above, with M776V counted along it

SMILES	IC50 [1] [nM]	IC50 [2] [nM]
CN1CC=C(c2cc(-c3ccc(N4CCN(Cc5c(F)cccc5F)CC4)nc3)c3c(C#N)cnn3c2)CC1 [Trifluoroacetate of compound 26]	3.82	22
COc1ccc(CN2C3CC2CN(c2ccc(-c4cc(N5CCN(C)C(=O)C5)cn5ncc(C#N)c45)cn2)C3)cn1 [Trifluoroacetate of compound 19]	2.35	–
N#Cc1cnn2cc(N3CCOCC3)cc(-c3ccc(N4CC5CC(C4)N5Cc4cnc5[nH]ccc5c4Cl)nc3)c12 [Compound 16]	6.08	–
CC(C)Oc1ccc(CN2C3CC2CN(c2ccc(-c4cc(N5CCOCC5)cn5ncc(C#N)c45)cn2)C3)cn1 [Trifluoroacetate of compound 12]	0.61	0.51
COc1ccc(CN2C3CC2CN(c2ccc(-c4cc(C5=CC(C)(C)OCC5)cn5ncc(C#N)c45)cn2)C3)cn1 [Compound 50]	1.87	–
COc1ccc(CN2C3CC2CN(c2ccc(-c4cc(C5=CCNCC5)cn5ncc(C#N)c45)cn2)C3)cn1 [Trifluoroacetate of compound 32]	1.1	3.15
COc1ccc(CN2C3CC2CN(c2ccc(-c4cc(N5CC[C@@H](O)C5)cn5ncc(C#N)c45)cn2)C3)cn1 [Compound 70]	1.09	–
CN1CCC(c2cc(-c3ccc(N4CCN(Cc5c(F)cccc5F)CC4)nc3)c3c(C#N)cnn3c2)C1 (centres unmarked) [Trifluoroacetate of compound 6]	34.8	–
N#Cc1cnn2cc(C3=CCOCC3)cc(-c3ccc(N4CC5CC(C4)N5Cc4ccc(C(F)(F)F)nc4)nc3)c12 [Trifluoroacetate of compound 56]	0.96	–
COc1ccc(CN2C3CC2CN(c2ccc(-c4cc(C5=CCN(C)CC5)cn5ncc(C#N)c45)cn2)C3)cn1 [Trifluoroacetate of compound 46]	1.16	–
COc1ccc(CN2C3CC2CN(c2ccc(-c4cc(C5=CCOCC5)cn5ncc(C#N)c45)cn2)C3)cn1 [Trifluoroacetate of compound 33]	1.47	7.43
N#Cc1cnn2cc(C3=CCOCC3)cc(-c3ccc(N4CCN(Cc5c(F)cccc5F)CC4)nc3)c12 [Trifluoroacetate of compound 22]	0.47	2.04
COc1ccc(CN2C3CC2CN(c2ccc(-c4cc(C5=CCOC(C)(C)C5)cn5ncc(C#N)c45)cn2)C3)cn1 [Compound 51]	1.73	–
N#Cc1cnn2cc(N3CC[C@@H](F)C3)cc(-c3ccc(N4CC5CC(C4)N5Cc4cnc5[nH]ccc5c4)nc3)c12 [Trifluoroacetate of compound 73]	0.72	–
COc1ccc(CN2C3CC2CN(c2ccc(-c4cc(N5CCOCC5)cn5ncc(C#N)c45)cn2)C3)cn1 [Trifluoroacetate of compound 9]	0.97	1.8
N#Cc1cnn2cc(N3CCCC3)cc(-c3ccc(N4CCN(Cc5c(F)cccc5F)CC4)nc3)c12 [Triftuoroacetate of compound 57]	1.98	8.11
COc1ccc(CN2C3CC2CN(c2ccc(-c4cc(C5=CCNC(C)C5)cn5ncc(C#N)c45)cn2)C3)cn1 (centres unmarked) [Compound 41]	3.09	11.3
N#Cc1cnn2cc(C3=CCOCC3)cc(-c3ccc(N4CC5CC(C4)N5Cc4ccnc5c4OCO5)nc3)c12 [Triftuoroacetate of compound 43]	0.72	–
COc1ccc(CN2C3CC2CN(c2ccc(-c4cc(C5=CCC(C)(O)CC5)cn5ncc(C#N)c45)cn2)C3)cn1 (centres unmarked) [Compound 42]	1.13	–
COc1ccc(CN2C3CC2CN(c2ccc(-c4cc(N5CC[C@@H](OC)C5)cn5ncc(C#N)c45)cn2)C3)cn1 [compound 79]	1.39	–
COc1ccc(CN2C3CC2CN(c2cnc(-c4cc(N5CC[C@@H](F)C5)cn5ncc(C#N)c45)cn2)C3)cn1 [Trifluoroacetate of compound 67]	1.09	1.6
COc1ccc(CN2C3CC2CN(c2ccc(-c4cc(N5CCC(C)(O)C5)cn5ncc(C#N)c45)cn2)C3)cn1 (centres unmarked) [Trifluoroacetate of compound 82]	2.34	–
COc1ccc(CN2C3CC2CN(c2cnc(-c4cc(N5CCCC5)cn5ncc(C#N)c45)cn2)C3)cn1 [Triftuoroacetate of compound 64]	1.23	2.67
N#Cc1cnn2cc(N3CCOCC3)cc(-c3ccc(N4CC5CC(C4)N5Cc4cnc5c(c4)OCO5)nc3)c12 [Trifluoroacetate of compound 13]	1.57	3.49

SMILES	IC50 [1] [nM]	IC50 [2] [nM]
CN1CCC(c2cc(-c3ccc(N4CCN(Cc5c(F)cccc5F)CC4)nc3)c3c(C#N)cnn3c2)CC1 [Hydrochloride of compound 2]	95.5	1410
N#Cc1cnn2cc(C3=CCOCC3)cc(-c3ccc(N4CC5CC(C4)N5Cc4cnc5c(c4)OCO5)nc3)c12 [Trifluoroacetate of compound 44]	2.34	–
N#Cc1cnn2cc(C3=CCNCC3)cc(-c3ccc(N4CCN(Cc5c(F)cccc5F)CC4)nc3)c12 [Tfifluoroacetate of compound 25]	1.62	11
COc1ncc(CN2C3CC2CN(c2ccc(-c4cc(N5CCOCC5)cn5ncc(C#N)c45)cn2)C3)cc1F [Trifluoroacetate of compound 15]	1.21	–
N#Cc1cnn2cc(N3CCOCC3)cc(-c3ccc(N4CC5CC(C4)N5Cc4cnc5[nH]ccc5c4)nc3)c12 [Trifluoroacetate of compound 14]	0.72	0.48
COc1ccc(CN2C3CC2CN(c2cnc(-c4cc(C5CC5)cn5ncc(C#N)c45)cn2)C3)cn1 [Trifluoroacetate of compound 8]	1.15	3.14
COc1ccc(CN2C3CC2CN(c2ccc(-c4cc(N5CC[C@H](OC)C5)cn5ncc(C#N)c45)cn2)C3)cn1 [compound 78]	0.77	–
CC(C)(O)CNC(=O)C1CCN(c2ccc(-c3cc(N4CCCC4)cn4ncc(C#N)c34)cn2)CC1 [Trifluoroacetate of compound 60]	3.87	19.9
COc1ccc(CN2C3CC2CN(c2ccc(-c4cc(C5=CCNC(C)(C)C5)cn5ncc(C#N)c45)cn2)C3)cn1 [Trifluoroacetate of compound 48]	2.13	–
COc1ccc(CN2C3CC2CN(c2ccc(-c4cc(N5CCN(C(C)=O)CC5)cn5ncc(C#N)c45)cn2)C3)cn1 [Trifluoroacetate of compound 20]	0.9	–
COc1ccc(CN2C3CC2CN(c2cnc(-c4cc(N5CC[C@H](F)C5)cn5ncc(C#N)c45)cn2)C3)cn1 [Trifluoroacetate of compound 66]	1.62	7.53
COc1ccc(CN2C3CC2CN(c2ccc(-c4cc(N5CCC(N(C)C)C5)cn5ncc(C#N)c45)cn2)C3)cn1 (centres unmarked) [Triftuoroacelate of compound 72]	6.6	12
C[C@@H](C(=O)N1CCN(c2ccc(-c3cc(N4CCOCC4)cn4ncc(C#N)c34)cn2)CC1)c1ccccc1 [Hydrochloride of compound 4]	2.42	22.7
N#Cc1cnn2cc(C3=CCOCC3)cc(-c3ccc(N4CC5CC(C4)N5Cc4ccc5[nH]ccc5c4)nc3)c12 [Compound 38]	1.21	5.93
COc1ccc(CN2CCN(c3ccc(-c4cc(N5CCCC5)cn5ncc(C#N)c45)cn3)CC2)cn1 [Trifluoroacetate of compound 63]	1.6	5.68
COc1ccc(CN2C3CC2CN(c2ccc(-c4cc(N5CC[C@@H](F)C5)cn5ncc(C#N)c45)cn2)C3)cn1 [Trifluoroacetate of compound 68]	1.53	1.47
COc1cnc(CN2C3CC2CN(c2ccc(-c4cc(C5=CCOCC5)cn5ncc(C#N)c45)cn2)C3)cn1 [Compound 36]	1.22	3.79
COc1ccc(CN2CCN(c3ccc(-c4cc(C5=CCOCC5)cn5ncc(C#N)c45)cn3)CC2)cn1 [Hydrochloride of compound 29]	1.04	–
COc1ccc(CN2C3CC2CN(c2ccc(-c4cc(N5CCC(C)(O)CC5)cn5ncc(C#N)c45)cn2)C3)cn1 [Trifluoroacetate of compound 21]	1.98	–
COc1ccc(CN2C3CC2CN(c2ccc(-c4cc(N5CC[C@H](O)C5)cn5ncc(C#N)c45)cn2)C3)cn1 [Compound 71]	0.59	–
CCN1CCN(c2cc(-c3ccc(N4CC5CC(C4)N5Cc4ccc(OC)nc4)nc3)c3c(C#N)cnn3c2)CC1 [Trifluoroacetate of compound 17]	5.25	–
COc1ccc(CN2C3CC2CN(c2ccc(-c4cc(N5CCC(OC)C5)cn5ncc(C#N)c45)cn2)C3)cn1 (centres unmarked) [Trifluoroacetate of compound 77]	4.39	–
COc1ccc(CN2C3CC2CN(c2ccc(-c4cc(C5=CCC6(CC5)COC6)cn5ncc(C#N)c45)cn2)C3)cn1 [Trifluoroacetate of compound 47]	0.63	–
COc1ccc(CN2C3CC2CN(c2ccc(-c4cc(C5=CCOC5)cn5ncc(C#N)c45)cn2)C3)cn1 [Trifluoroacetate of compound 54]	2.42	–
